Here are results for 4 compounds from patent US20240335385A1, “IONIZABLE AMINE LIPIDS AND LIPID NANOPARTICLES” (Beam Therapeutics Inc., priority 2021, published 2024).

Data set [1] is described as follows: RNA encapsulation efficiency of LNPs by Ribogreen assay. The class given is physicochemical. The following applies: LNP of 47.5% Ionizable Lipid:40% cholesterol:2.5% PEG-2000 DMG:10% DPSC, N/P ratio 4-8. As for the experimental part:
(§1) LNPs were prepared with 47.5% Ionizable Lipid (e.g., a compound provided herein):40% cholesterol:2.5% PEG-2000 DMG:10% DPSC and an N/P ratio range of 4-8. LNPs were formed by microfluidic mixing of the lipid and NA solutions using a Precision Nanosystems NanoAssemblr Spark or Benchtop series Instruments, according to the manufacturer's protocol. A ratio of aqueous to organic solvent of approximately 2:1 or 3:1 was maintained during mixing using differential flow rates. After mixing, LNPs were collected, diluted in phosphate buffer saline (PBS) or Tris-buffered saline (TBS) (approximately 1:1 v/v). Further buffer exchange was conducted using dialysis in PBS or TBS at 4° C. for 4 to 24 hours against a 20 kDa filter. After this initial dialysis, each individual LNP preparation was characterized via dynamic light scattering (DLS) to measure the size (e.g., diameter) and polydispersity. LNPs falling within specific diameter and polydispersity ranges were pooled, and further dialyzed against PBS or TBS at 4° C. for 1 to 4 hours against a 100 kDa dialysis cassette. After the second dialysis, LNPs were sterile filtered using 0.22 μm filter and stored at 4° C. for further use.
RNA concentration and encapsulation efficiency were determined by Ribogreen assay (BioTek Synergy LX plate reader).

The nature of data set [2]: LNP hydrodynamic diameter and polydispersity index by dynamic light scattering (DLS). In kind it is physicochemical. The following applies: LNP of 47.5% Ionizable Lipid:40% cholesterol:2.5% PEG-2000 DMG:10% DPSC, N/P ratio 4-8. The protocol:
as §1
LNP hydrodynamic diameter and polydispersity index (PDI) were measured using high throughput dynamic light scattering (DLS) (Stunner, Unchained Labs). LNPs were diluted 1×TBS or PBS to an appropriate concentration and analyzed.

A further data set concerns ALAS1 target site. The data set can be described thus: Base editing in liver by LNP carrying adenine base editor mRNA and sgRNA, targeted deep sequencing. The class given is in vivo. The following applies: Balb/C mice, tail vein, 0.15 mg/kg total RNA (ABE mRNA:sgRNA 1:1), four to six days post-dose. As for the experimental part: Exemplary LNP preparations were selected to determine each preparation's ability to perform base editing in a Balb/C mouse model as described herein.
Lipid nanoparticle components were dissolved in 100% ethanol at specified lipid component molar ratios. mRNA encoding an adenine base editor and a chemically-modified sgRNA was dissolved at a mass ratio of 1:1 in 50 mM citrate, pH 4.0, resulting in a concentration of NA cargo of approximately 0.1 mg/mL.
LNP preparations were formulated with molar ratios of 47.5% Ionizable Lipid:40% Cholesterol:2.5% PEG2000-DMG:10% DSPC total lipid to NA mass ratio of 6 to 12. […]
A 3:1 ratio of aqueous to organic solvent was maintained during mixing using differential flow rates. […] After this initial dialysis, each individual LNP preparation was characterized via dynamic light scattering (DLS) to measure size and polydispersity. pKa of a subpopulation of LNP preparations was measured via TNS assay. […]
Age-matched mice were also used to administer vehicle (1×TBS) via tail vein injection as a control. […] Base editing is determined by performing targeted deep sequencing analysis at the ALAS1 target site using extracted genomic DNA. […] Library size and concentration was confirmed by Fragment Analyzer (Agilent) and analyzed for […] using an Illumina HiSeq.

The next data set concerns liver. The data set is described as follows: LNP biodistribution screen, barcode fold above input (FAI) in liver. In kind it is in vivo. The following applies: mice, tissues 4 hours post-dose. As for the experimental part: (§2) Male and female mice aged approximately 8-12 weeks were used for studies described by the present Example. Each mouse was temporarily restrained and pooled LNP was administered IV via tail vein injection in up to five animals per experiment. Age-matched mice was also used to administer vehicle (1×TBS) via tail vein injection in up to three animals per experiment. Additional routes of administration can also be conducted including intracerebral ventricular (ICV), intracisterna manga (ICM), intrathecal (IT), intramuscular (IM), nebulization, intranasal (IN), subcutaneous (SC), intraarticular, and intradermal (ID). At 4 hours post-dose, tissues including liver, spleen, bone marrow, testes, gastrocnemius, quadricep, lung, heart, kidney, and pancreas may be collected for analysis.
Liver, kidney, lung, and muscle (e.g. skeletal and cardiac) tissues may be mechanically, and then enzymatically digested using a mixture of proteinases, then passed through a 70 μm filter to generate single cell suspensions. Spleen tissues were mechanically digested to generate single cell suspensions. Tissues were treated with ACK buffer to lyse red blood cells, and then stained with fluorescently-labeled antibodies for flow cytometry and fluorescence-activated cell sorting (FACS). Commercially available antibodies were used in the present example. Using a BD FACSMelody (Becton Dickinson), samples were acquired via flow cytometry to generate gates prior to sorting. […]
To screen for preferential LNP delivery to a target tissues, the relative abundance of each barcode in one or more target tissues was measured and compared to the relative abundance of each barcode to its corresponding relative input abundance to determine fold above input (FAI) for each barcode. […]
The FAI is the normalized relative abundance of a barcode in a selected sample as compared to its frequency in the input. […] The FAI value of the barcode was calculated by normalizing the relative abundance in the barcode sequence counts in the isolated samples to its relative abundance in the administration input. […]

The subject of a further data set is spleen. The data set can be described thus: LNP biodistribution screen, barcode fold above input (FAI) in spleen. In kind it is in vivo. To be noted: mice, tissues 4 hours post-dose. The protocol:
as §2
(§3) Liver, kidney, lung, and muscle (e.g. skeletal and cardiac) tissues may be mechanically, and then enzymatically digested using a mixture of proteinases, then passed through a 70 μm filter to generate single cell suspensions. Spleen tissues were mechanically digested to generate single cell suspensions. Tissues were treated with ACK buffer to lyse red blood cells, and then stained with fluorescently-labeled antibodies for flow cytometry and fluorescence-activated cell sorting (FACS). Commercially available antibodies were used in the present example. Using a BD FACSMelody (Becton Dickinson), samples were acquired via flow cytometry to generate gates prior to sorting. In general, the gating structure was size→singlet cells→live cells→cells of interest. T cells were defined as CD45+CD3+, monocytes are defined as CD45+CD11b+, and B cells are defined as CD45+CD19+. Endothelial cells were defined as CD31+, monocytes and Kupffer cells as CD45+CD11b+ and hepatocytes and myocytes were defined as CD31−/CD45− in the liver and muscle, respectively. Tissues from vehicle-dosed mice were used to set the gates for sorting.
(§4) RNA from tissues were extracted using the Reliaprep RNA extraction kit, and libraries were prepared using the RNAseq kit, and sequenced on either a MiSeq or NextSeq500.
(§5) To screen for preferential LNP delivery to a target tissues, the relative abundance of each barcode in one or more target tissues was measured and compared to the relative abundance of each barcode to its corresponding relative input abundance to determine fold above input (FAI) for each barcode. If the FAI of a barcode in a target tissue is above a threshold or above the FAI of a different LNP in the same tissue, the LNP can be identified as preferentially delivering to the target tissue.
(§6) The FAI is the normalized relative abundance of a barcode in a selected sample as compared to its frequency in the input. The FAI of a barcode indicates how a LNP's abundance changes relative to the rest of the LNP pool. The FAI value of the barcode was calculated by normalizing the relative abundance in the barcode sequence counts in the isolated samples to its relative abundance in the administration input. […] The FAI then indicates the performance of an LNP relative to the input LNP composition.
(§7) Each table describes data obtained from one screening experiment.

In another data set the test system is lung. The data set is described as follows: LNP biodistribution screen, barcode fold above input (FAI) in lung. In kind it is in vivo. The following applies: mice, tissues 4 hours post-dose. The protocol: as §2, §3, §4, §5, §6, §7
[3] abbreviates: screening experiment of Table 3, pooled LNP IV tail vein.
[4] abbreviates: screening experiment of Table 5, pooled LNP IV tail vein.
[5] abbreviates: screening experiment of Table 4, pooled LNP IV tail vein.

Consider `CC/C=C\CCCCOC(CCC(=O)OCCCC(CCCOC(=O)CCCCCCC/C=C\C/C=C\CCCCC)OC(=O)OCC1CCCN(CC)C1)OCCCC/C=C\CC` (stereo not drawn) [Example 7-21, 7-((4,4-bis(((Z)-oct-5-en-1-yl)oxy)butanoyl)oxy)-4-((((1-ethylpiperidin-3-yl)methoxy)carbonyl)oxy)heptyl (9Z,12Z)-octadeca-9,12-dienoate], for which, in data set [1], the “Mean Encapsulation Efficiency (%)” value turned out to be 86.4%. Moreover, in data set [2], the “Mean Diameter (nm)” value is 90.0 nm and the “Mean PDI” value was 0.11. Also, the “base editing observed in liver” value in the data set with ALAS1 target site was found to be 34.1%.
In the case of “5-((4,4-bis(((Z)-oct-5-en-1-yl)oxy)butanoyl)oxy)-3-((4-(pyrrolidin-1-yl)butanoyl)oxy)pentyl (9Z,12Z)-octadeca-9,12-dienoate [Example 7-5]”, the “Mean Encapsulation Efficiency (%)” value in data set [1] was determined as 86.8%. In addition, the “FAI (Liver)” value with liver (setting [3]) is on record as 2.28. Also, the “Mean Diameter (nm)” value in data set [2] was determined as 93.1 nm. Moreover, the “Mean PDI” value in data set [2] is listed as 0.13. The “FAI (Spleen)” value is on record as 1.29 in the data set on spleen (setting [3]) and 1.33 with spleen (setting [4]). The “FAI (Lung)” value with lung (setting [3]) stood at 1.30; in the data set on lung (setting [4]) it was 0.83.
As for `CCCCC/C=C\C/C=C\CCCCCCCCC(CCCCCCCC/C=C\C/C=C\CCCCC)OC(=O)CCCN(C)C` [MC3, (6Z,9Z,28Z,31Z)-heptatriaconta-6,9,28,31-tetraen-19-yl 4-(dimethylamino) butanoate], the “FAI (Liver)” value is listed as 0.80 in the data set on liver (setting [3]) and 0.31 in the data set on liver (setting [5]). Further, the “FAI (Spleen)” value was 1.32 in the data set with spleen (setting [3]), 0.45 with spleen (setting [5]) and 0.39 with spleen (setting [4]). The “FAI (Lung)” value in the data set with lung (setting [3]) is given as 1.09; in the data set with lung (setting [5]), 0.65; in the data set on lung (setting [4]), 0.50.
Consider `CC/C=C\CCCCOC(CCC(=O)OCCCCC(CCCCOC(=O)CCCCCCC/C=C\C/C=C\CCCCC)OC(=O)OCC1CCCN(CC)C1)OCCCC/C=C\CC` (stereo not drawn) [Example 7-41, 9-((4,4-bis(((Z)-oct-5-en-1-yl)oxy)butanoyl)oxy)-5-((((1-ethylpiperidin-3-yl)methoxy)carbonyl)oxy)nonyl (9Z,12Z)-octadeca-9,12-dienoate], for which the “Mean Encapsulation Efficiency (%)” value in data set [1] is 84.3%. In addition, in data set [2], the “Mean Diameter (nm)” value is 80.3 nm and the “Mean PDI” value is 0.11. The “base editing observed in liver” value in the data set with ALAS1 target site is listed as 1.7%.
